# Experimental data as given in US7220731B2, “Derivatised carbohydrates and their use in solid delivery systems” (Elan Drug Delivery Limited, priority 2000, dated 2007).
# Key:
# water solubility (glass) = type: physicochemical
# [1] = glass temperature of the compound; type: physicochemical
# [2] = physical stability (t½ induction) at 40° C./75% RH; type: physicochemical
# [3] = hydrolytic stability (t½) at 20° C.; type: physicochemical; conditions: buffer
# log pow = type: physicochemical; conditions: octanol/water
structure (smiles),measurement,setting,value
"CC(=O)OC1C(O[C@@H]2OC(COC(=O)C3O[C@H](OC(C)=O)C(OC(C)=O)C(OC(C)=O)[C@@H]3OC(C)=O)[C@@H](OC(C)=O)C(OC(C)=O)C2OC(C)=O)OC(COC(=O)C2O[C@H](OC(C)=O)C(OC(C)=O)C(OC(C)=O)[C@H]2OC(C)=O)[C@@H](OC(C)=O)C1OC(C)=O (stereo partly drawn) [Example 1, di(β-tetraacetylglucuronyl)hexaacetyltrehalose]",water solubility (glass),water solubility (glass),9.5 ppm
same,glass temperature,[1],110 °C
same,physical stability (t½ induction),[2],>1176 h
same,half-life,[3]; pH 4,12 h
same,half-life,[3]; pH 7,14 h
same,half-life,[3]; pH 9,< 1 h
same,logP,log pow,2.9
same,melting point,,156 °C
